Where two headings read alike, the source gives them in different places.
What was measured:
[1] = test system: WI-38 cells (AID negative); assay: Primary screening cell killing assay repeated in WI-38 cells (AID negative); assay type: cell-based; details: Homo sapiens, 168 h, cell death on Day 7, Cell-Titer Glo
Experimental: (§1) Primary screening was a phenotypic screen that utilized the synthetic lethal interaction between AID and RAD51 to identify compounds that were both potent and on target. AID expressing cells are dependent upon RAD51 for survival; inhibiting RAD51 in AID positive cells results in a cytotoxic effect.
Percent cell death and EC50 values were calculated by comparing the cell viability of the compound treated wells to the non-treated wells. Normalized RLU values were obtained by subtracting the media well values from each of the wells in the same column, and then dividing that value by the DMSO treated cells values. The percent kill was then calculated by subtracting the normalized RLU value from 1 and multiplying by 100. The average normalized percent kill value and standard error of the mean was then calculated. The kill values were then inputted into Prism with the corresponding standard errors. In Prism a non-linear regression line was plotted with the data points using a semi-log scale, and the EC50 value was calculated.

[2] = test system: Daudi cell line (AID positive); assay: Primary screening cell killing assay, Daudi cell line (AID positive); assay type: cell-based; details: Homo sapiens, 168 h, cell death on Day 7, Cell-Titer Glo
Experimental: as §1
The first step was to set up a cell killing assay in the Daudi cell line (AID positive). A 96 well u-bottom plate was prepared by writing the experiment number, plate number, date and initials in the top right corner of the plate lid. With a sterile 300 ml reservoir, and 25 ml serological pipette, evaporation buffer media was pipetted into reservoir in 25 ml increments. Using the liquid handler, 150 ul of evaporation buffer media was pipetted from reservoir into rows A and H, and Columns 1 and 12 of the 96 well u-bottom plate. Cell cultures were counted to obtain the density of cells per ml, and the culture viability. The cell density information was used to obtain 1,000,000 cells from culture using a 5 mL serological pipette into an epi tube. The cell density information from the culture was used to calculate the number of cells and volume of media needed for the assay to seed 1250 cells in 130 ul of media per available culture well in the 96 well u-bottom plate. Rows B through F were used for cells (50 wells in total), with row G left for an empty media control. The calculation was overestimated by 10 mL to account for the dead volume in the 300 ml reservoir. Once the media volume was calculated, the appropriate volume of media was pipetted in 25 mL increments into the 250 mL bottle using a 25 mL serological pipette. The 250 ml bottle was capped tightly, and placed into a 37° C. water bath for 2 minutes. While the culture media was warming, 10 mL of fresh media was pipetted from the 500 mL culture media bottle into a sterile 25 mL reservoir. Using the Eppendorf multichannel pipette, 130 ul of media was pipetted from the 25 mL reservoir into row G of the 96 well u-bottom plate. Once the 250 mL bottle of media was warmed, the volume of culture needed was pipetted into the bottle, and mixed gently with a 25 mL serological pipette as to not create bubbles, and then the contents of the bottle were pipetted into a new 300 mL reservoir. Using the liquid handler, 130 ul of culture was pipetted from the 300 mL reservoir into rows B through F of the 96 well u-bottom plate. Once the culture was added, the plate was placed into a 37° C. incubator until the compound master plate was prepared for use.
Two 96 well u-bottom plates were prepared by writing the master plate name in the upper right corner of the plate lid. Labeling one DMSO master and the other Media Master. The compounds of interest were obtained from the laboratory freezer, and placed into a 25 well storage box with a lid, and set the box aside. The compounds were vortexed after thawing but before use. Using an automatic multichannel pipette, 20 ul of 100% DMSO was pipetted into wells B3-B11 through G3-G11 of the DMSO master plate. For each compound on the master plate, 50 ul of the compound were pipetted in the appropriate well of row 2 (reference plate map to determine appropriate well). A serial dilution was prepared beginning by aspirating 20 ul from row 2 and mixing with row 3, repeating until row 11 was reached. Using the liquid handler, 194 ul of Daudi media was dispensed into wells B2-B11 through G2-G11 of the Media master plate. Using the liquid handler, 6 ul from the DMSO master plate was aspirated and dispensed into the media master plate, mixing 100 ul twice.
Compounds from master plate were then added to the culture plate. The culture plates were removed from the incubator, and set inside the biosafety cabinet. Using a liquid handler, 20 ul from wells B2 to B11 through G2 to G11 of master plate were aspirated, and dispensed into wells B2 to B11 through G2 to G11 of culture plate. This set was continued with each culture plate. […]

[3] = Bi-directional Caco-2 permeability; assay type: in vitro ADME; details: human; for efflux ratio at 90 min: Caco-2, read-out: BA/AB Ratio; for Papp A→B at 90 min: Caco-2, apical to basolateral, read-out: AB Papp (cm/sec × 10^6); for Papp A→B at 90 min / Papp B→A at 90 min: 37 C, up to 90 minutes; for Papp B→A at 90 min: Caco-2, basolateral to apical, read-out: BA Papp (cm/sec × 10^6)
Experimental: Bi-directional Caco-2 permeability was assayed. Caco-2 cells were seeded onto permeable polycarbonate supports and allowed to differentiate for about 3 weeks prior to being used in the assays. The cells were then exposed to the compounds from either the apical or basolateral sides and incubated at 37 C for up to 90 minutes under light agitation. Compound transport was then measured using LC/MS/MS analysis at 30, 60, and 90 minutes.

[4] = Caco-2, Caco-2, AB direction, read-out: AB Recovery %
[5] = Caco-2, Caco-2, BA direction, read-out: BA Recovery %

Compound	EC50 [1] [nM]	EC50 [2] [nM]	recovery at 90 min [3, 4] [%]	recovery at 90 min [3, 5] [%]	efflux ratio at 90 min [3]	Papp A→B at 90 min [3] [×10⁻⁶ cm/s]	Papp B→A at 90 min [3] [×10⁻⁶ cm/s]
CC(C)NC(=O)OC1CCN(c2ncc(-c3ccc(NC(=O)NCc4ccccc4)cc3S(=O)(=O)NC(C)(C)C)s2)CC1 [Ex. 3, [1-[5-[4-(benzylcarbamoylamino)-2-(tert-butylsulfamoyl)phenyl]thiazol-2-yl]-4-piperidyl] N-isopropylcarbamate]	> 1000	≤ 100					
CC(C)OC(=O)N1CCC(c2ncc(-c3ccc(NC(=O)NCc4ccccn4)cc3S(=O)(=O)NC(C)(C)C)s2)CC1 [Ex. 4, isopropyl 4-[5-[2-(tert-butylsulfamoyl)-4-(2-pyridylmethylcarbamoylamino)phenyl]thiazol-2-yl]piperidine-1-carboxylate]	> 1000	> 1000					
CC(C)OC(=O)Nc1ccc(-c2cnc(N3CCN(C(=O)OC(C)C)CC3)s2)c(S(=O)(=O)NC(C)(C)C)c1 [Ex. 5, isopropyl 4-[5-[2-(tert-butylsulfamoyl)-4-(isopropoxycarbonylamino)phenyl]thiazol-2-yl]piperazine-1-carboxylate]		> 1000	34.7	80.8	0.4	5.9	2.2
CC(C)OC(=O)Nc1ccc(-c2cnc([C@H]3CC[C@H](NC(=O)OC4CCCC4)CC3)s2)c(S(=O)(=O)NC(C)(C)C)c1 [Ex. 7, trans-isopropyl N-[3-(tert-butylsulfamoyl)-4-[2-[4-(cyclopentoxycarbonylamino)cyclohexyl]thiazol-5-yl]phenyl]carbamate]		100 to 1000	55.9	92	1.2	1.7	2.1
CC(C)OC(=O)NC12CCC(c3ncc(-c4ccc(NC(=O)N[C@@H](C)c5ccccc5)cc4S(=O)(=O)NC(C)(C)C)s3)(CC1)CC2 [Ex. 13, isopropyl (S)-(4-(5-(2-(N-(tert-butyl)sulfamoyl)-4-(3-(1-phenylethyl)ureido)phenyl)thiazol-2-yl)bicyclo[2.2.2]octan-1-yl)carbamate]	> 1000	≤ 100					
CC(C)OC(=O)NC12CCC(c3ncc(-c4ccc(NC(=O)N[C@H](C)c5ccccc5)cc4S(=O)(=O)NC(C)(C)C)s3)(CC1)CC2 [Ex. 14, isopropyl (R)-(4-(5-(2-(N-(tert-butyl)sulfamoyl)-4-(3-(1-phenylethyl)ureido)phenyl)thiazol-2-yl)bicyclo[2.2.2]octan-1-yl)carbamate]	> 1000	≤ 100					
CC(C)OC(=O)NC12CCC(c3ncc(-c4ccc(NC(=O)N[C@@H](C)c5ccccn5)cc4S(=O)(=O)NC(C)(C)C)s3)(CC1)CC2 [Ex. 15, isopropyl (S)-(4-(5-(2-(N-(tert-butyl)sulfamoyl)-4-(3-(1-(pyridin-2-yl)ethyl)ureido)phenyl)thiazol-2-yl)bicyclo[2.2.2]octan-1-yl)carbamate]	> 1000	≤ 100					
CC(C)OC(=O)NC12CCC(c3ncc(-c4ccc(NC(=O)N[C@H](C)c5ccccn5)cc4S(=O)(=O)NC(C)(C)C)s3)(CC1)CC2 [Ex. 16, isopropyl (R)-(4-(5-(2-(N-(tert-butyl)sulfamoyl)-4-(3-(1-(pyridin-2-yl)ethyl)ureido)phenyl)thiazol-2-yl)bicyclo[2.2.2]octan-1-yl)carbamate]	> 1000	≤ 100					
CC(C)NC(=O)O[C@H]1CC[C@H](c2ncc(-c3ccc(NC(=O)OC(C)C)cc3S(=O)(=O)NC(C)(C)C)s2)CC1 [Ex. 20, trans-isopropyl N-[3-(tert-butylsulfamoyl)-4-[2-[4-(isopropylcarbamoyloxy)cyclohexyl]thiazol-5-yl]phenyl]carbamate]		> 1000	44.8	96.6	1.1	9.4	10.4
CC(C)NC(=O)O[C@H]1CC[C@H](c2ncc(-c3ccc(NC(=O)NCc4ccccc4)cc3S(=O)(=O)NC(C)(C)C)s2)CC1 [Ex. 21, (1r,4r)-4-(5-(4-(3-benzylureido)-2-(N-(tert-butyl)sulfamoyl)phenyl)thiazol-2-yl)cyclohexyl isopropylcarbamate]		≤ 100	58.6	78.3	3	3.6	10.7
CC(C)OC(=O)N[C@H]1CC[C@H](c2ncc(-c3ccc(NC(=O)NCc4ccccc4F)cc3S(=O)(=O)NC(C)(C)C)s2)CC1 [Ex. 28, isopropyl ((1r,4r)-4-(5-(2-(N-(tert-butyl)sulfamoyl)-4-(3-(2-fluorobenzyl)ureido)phenyl)thiazol-2-yl)cyclohexyl)carbamate]		≤ 100	66.9	81	1.7	1.9	3.3
CC(C)OC(=O)N[C@H]1CC[C@H](c2ncc(-c3ccc(NC(=O)OC[C@H]4CCCN4C)cc3S(=O)(=O)NC(C)(C)C)s2)CC1 [Ex. 34, isopropyl ((1R,4r)-4-(5-(2-(N-(tert-butyl)sulfamoyl)-4-(((((R)-1-methylpyrrolidin-2-yl)methoxy)carbonyl)amino)phenyl)thiazol-2-yl)cyclohexyl)carbamate]		100 to 1000	98.2	96.8	104	0.4	45.2
CC(C)OC(=O)N[C@H]1CC[C@H](c2ncc(-c3ccc(NC(=O)OC[C@@H]4CCCN4C)cc3S(=O)(=O)NC(C)(C)C)s2)CC1 [Ex. 35, isopropyl ((1S,4r)-4-(5-(2-(N-(tert-butyl)sulfamoyl)-4-(((((S)-1-methylpyrrolidin-2-yl)methoxy)carbonyl)amino)phenyl)thiazol-2-yl)cyclohexyl)carbamate]		100 to 1000	98.8	108	99.1	0.4	41
CC(C)OC(=O)Nc1ccc(-c2cnc([C@H]3CC[C@H](NC(=O)OC(C)(C)C)CC3)s2)c(S(=O)(=O)NC(C)(C)C)c1 [Ex. 44, trans-isopropyl N-[4-[2-[4-(tert-butoxycarbonylamino)cyclohexyl]thiazol-5-yl]-3-(tert-butylsulfamoyl)phenyl]carbamate]		> 1000	36.2	69.4	1.3	3.2	4.2
CC(C)(C)NS(=O)(=O)c1cc(NC(=O)NCc2ccccn2)ccc1-c1cnc(C2CCC(NC(=O)OC(C)(C)C)CC2)s1 (stereo not drawn) [Ex. 45, tert-butyl ((1r,4r)-4-(5-(2-(N-(tert-butyl)sulfamoyl)-4-(3-(pyridin-2-ylmethyl)ureido)phenyl)thiazol-2-yl)cyclohexyl)carbamate]		≤ 100	73.6	84.4	1.4	7.6	10.8
